Results reported in US20240024488A1, “COMPOUNDS AND USES THEREOF” (Foghorn Therapeutics Inc., priority 2020, published 2024).
pIC50: −log10 of the molar value.

How the values were obtained:
[1] = target: T1, HiBit-BRG1 fusion protein (Homo sapiens, UniProt P51532); assay: HiBiT-BRG1 cell-based degradation assay (Nano-Glo HiBiT Lytic Detection, 24 h); conditions: HeLa cell line expressing HiBit-BRG1 and LgBit; for Dmax: read-out: BRG1 HiBit Degradation Maximum (%)
T1 construct: expressed in transfected cells
Outline: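 Seed 5000 HeLa HiBit-BRG1/LgBit cells per well; treat 24 h; equilibrate 15 min at room temperature; add Nano-Glo HiBiT lytic reagent, shake 10 min, read luminescence. Percent degradation is scaled between DMSO and 2 μM reference degrader wells.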

[2] = target: T2, HiBit-BRM fusion protein (Homo sapiens, UniProt P51531); assay: HiBiT-BRM cell-based degradation assay (Nano-Glo HiBiT Lytic Detection, 24 h); conditions: HeLa cell line expressing HiBiT-BRM; for DC50: read-out: BRM HiBit Degradation IC50
T2 construct: expressed in transfected cells
Outline: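 Luminescence from reconstituted NanoBiT luciferase in lysed HeLa HiBiT-BRM cells served as the measure of remaining BRM after 24 h treatment. Compounds were tested from 30 μM final downward in 3-fold steps. DMSO and 2 μM of a standard BRM/BRG1 degrader defined the scale limits.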

[3] = read-out: BRMG1 HiBit Degradation IC50

T2 sequence (P51531 whole entry, the tested form may be a part): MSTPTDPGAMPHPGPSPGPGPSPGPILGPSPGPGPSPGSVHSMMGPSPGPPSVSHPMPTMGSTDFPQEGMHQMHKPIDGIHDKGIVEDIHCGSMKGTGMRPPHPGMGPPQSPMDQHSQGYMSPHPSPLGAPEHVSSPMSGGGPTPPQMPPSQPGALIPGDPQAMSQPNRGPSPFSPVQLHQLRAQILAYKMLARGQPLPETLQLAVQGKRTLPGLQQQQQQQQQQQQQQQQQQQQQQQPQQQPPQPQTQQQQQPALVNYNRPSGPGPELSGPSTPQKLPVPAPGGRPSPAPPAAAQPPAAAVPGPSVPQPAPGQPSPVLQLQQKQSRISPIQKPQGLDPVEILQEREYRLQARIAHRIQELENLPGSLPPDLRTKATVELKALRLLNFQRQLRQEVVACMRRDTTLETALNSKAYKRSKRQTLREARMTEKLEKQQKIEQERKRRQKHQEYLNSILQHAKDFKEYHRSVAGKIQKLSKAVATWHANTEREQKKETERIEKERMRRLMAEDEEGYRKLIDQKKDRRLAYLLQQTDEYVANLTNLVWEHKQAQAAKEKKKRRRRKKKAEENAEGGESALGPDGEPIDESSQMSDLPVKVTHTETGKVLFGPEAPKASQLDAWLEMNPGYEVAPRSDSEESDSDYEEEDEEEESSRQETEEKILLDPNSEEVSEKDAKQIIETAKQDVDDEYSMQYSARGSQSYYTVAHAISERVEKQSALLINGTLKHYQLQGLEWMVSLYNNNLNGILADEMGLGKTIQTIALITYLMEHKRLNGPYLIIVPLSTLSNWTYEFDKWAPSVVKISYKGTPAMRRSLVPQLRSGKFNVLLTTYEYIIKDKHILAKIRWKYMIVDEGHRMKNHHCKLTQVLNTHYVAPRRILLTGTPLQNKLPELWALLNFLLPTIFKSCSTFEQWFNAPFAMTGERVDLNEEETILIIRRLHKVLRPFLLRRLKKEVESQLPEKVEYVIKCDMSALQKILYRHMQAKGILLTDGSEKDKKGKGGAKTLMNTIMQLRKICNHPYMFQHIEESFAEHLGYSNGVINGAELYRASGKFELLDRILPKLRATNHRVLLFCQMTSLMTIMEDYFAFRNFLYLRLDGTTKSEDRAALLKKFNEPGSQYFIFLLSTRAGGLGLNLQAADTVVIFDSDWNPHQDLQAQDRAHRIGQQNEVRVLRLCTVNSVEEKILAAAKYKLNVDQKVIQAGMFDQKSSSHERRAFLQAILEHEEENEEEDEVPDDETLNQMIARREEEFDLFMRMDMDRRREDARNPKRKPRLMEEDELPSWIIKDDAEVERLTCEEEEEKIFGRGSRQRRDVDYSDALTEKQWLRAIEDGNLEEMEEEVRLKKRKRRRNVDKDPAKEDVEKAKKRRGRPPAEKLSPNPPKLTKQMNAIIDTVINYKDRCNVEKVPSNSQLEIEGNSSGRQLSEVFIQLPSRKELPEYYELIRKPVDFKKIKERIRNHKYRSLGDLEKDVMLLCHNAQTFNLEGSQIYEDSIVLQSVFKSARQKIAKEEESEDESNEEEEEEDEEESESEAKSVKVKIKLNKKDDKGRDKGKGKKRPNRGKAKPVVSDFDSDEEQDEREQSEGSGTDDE
T1 sequence (P51532 whole entry, the tested form may be a part): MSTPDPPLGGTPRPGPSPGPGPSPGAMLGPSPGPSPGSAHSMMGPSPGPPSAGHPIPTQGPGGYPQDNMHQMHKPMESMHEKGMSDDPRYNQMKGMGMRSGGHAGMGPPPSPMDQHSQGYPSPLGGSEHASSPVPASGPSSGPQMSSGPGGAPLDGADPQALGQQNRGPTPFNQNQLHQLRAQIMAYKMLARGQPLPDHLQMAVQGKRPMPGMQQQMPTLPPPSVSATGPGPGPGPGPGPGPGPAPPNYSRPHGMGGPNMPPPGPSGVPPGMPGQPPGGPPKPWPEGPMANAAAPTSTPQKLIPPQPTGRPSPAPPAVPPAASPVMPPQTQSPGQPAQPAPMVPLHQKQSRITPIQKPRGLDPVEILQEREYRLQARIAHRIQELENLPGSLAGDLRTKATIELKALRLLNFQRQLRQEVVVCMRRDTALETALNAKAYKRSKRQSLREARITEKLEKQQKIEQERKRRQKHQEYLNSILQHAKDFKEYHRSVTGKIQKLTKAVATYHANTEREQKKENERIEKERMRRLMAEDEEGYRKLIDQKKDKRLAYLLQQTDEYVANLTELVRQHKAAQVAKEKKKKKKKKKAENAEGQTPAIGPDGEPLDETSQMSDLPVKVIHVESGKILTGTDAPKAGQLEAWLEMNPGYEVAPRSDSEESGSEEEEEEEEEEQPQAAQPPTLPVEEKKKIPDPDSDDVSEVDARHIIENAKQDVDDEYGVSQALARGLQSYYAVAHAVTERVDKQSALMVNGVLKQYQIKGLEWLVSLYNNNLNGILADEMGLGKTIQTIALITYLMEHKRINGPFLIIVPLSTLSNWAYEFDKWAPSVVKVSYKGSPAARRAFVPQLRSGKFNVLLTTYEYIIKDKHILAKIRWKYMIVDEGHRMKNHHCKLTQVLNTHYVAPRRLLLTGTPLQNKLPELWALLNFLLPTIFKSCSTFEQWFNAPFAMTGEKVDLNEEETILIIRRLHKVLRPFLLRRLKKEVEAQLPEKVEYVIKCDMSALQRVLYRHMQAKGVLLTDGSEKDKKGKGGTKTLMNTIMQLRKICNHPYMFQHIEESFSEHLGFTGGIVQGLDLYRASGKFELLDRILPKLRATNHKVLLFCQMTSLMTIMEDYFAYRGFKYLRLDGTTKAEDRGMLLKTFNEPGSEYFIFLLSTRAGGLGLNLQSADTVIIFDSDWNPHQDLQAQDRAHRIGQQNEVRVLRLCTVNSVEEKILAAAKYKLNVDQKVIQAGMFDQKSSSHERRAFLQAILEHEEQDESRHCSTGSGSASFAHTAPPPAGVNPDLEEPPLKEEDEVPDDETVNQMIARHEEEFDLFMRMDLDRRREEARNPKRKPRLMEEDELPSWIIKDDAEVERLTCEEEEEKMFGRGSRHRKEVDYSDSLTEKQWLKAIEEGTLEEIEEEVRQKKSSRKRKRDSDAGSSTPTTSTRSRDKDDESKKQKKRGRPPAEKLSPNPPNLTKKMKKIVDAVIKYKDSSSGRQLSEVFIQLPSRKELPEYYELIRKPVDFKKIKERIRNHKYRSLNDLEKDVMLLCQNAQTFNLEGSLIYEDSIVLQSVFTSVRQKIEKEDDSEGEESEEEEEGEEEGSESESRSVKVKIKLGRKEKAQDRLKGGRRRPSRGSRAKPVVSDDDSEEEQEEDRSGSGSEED

| SMILES | Dmax [1] [%] | DC50 [1, 3] [nM] | DC50 [2] [nM] | BRM HiBit Degradation Maximum (%) [2] | BRG1 HiBit Degradation Maximum (%) [1] | pIC50 [1, 3] | pIC50 [2] |
| --- | --- | --- | --- | --- | --- | --- | --- |
| Cc1ncsc1-c1ccc(CNC(=O)[C@@H]2C[C@@H](O)CN2C(=O)[C@@H](NC(=O)CCCC(=O)N2CC(c3c[nH]c4nnc(-c5ccccc5O)cc34)C2)C(C)(C)C)cc1 [Compound 40, (2S,4R)-4-hydroxy-1-((S)-2-(5-(3-(3-(2-hydroxyphenyl)-7H-pyrrolo[2,3-c]pyridazin-5-yl)azetidin-1-yl)-5-oxopentanamido)-3,3-dimethylbutanoyl)-N-(4-(4-methylthiazol-5-yl)benzyl)pyrrolidine-2-carboxamide] | < 50 | – | – | C (“C” indicates maximum degradation < 50%) | – | – | – |
| Cc1ncsc1-c1ccc(CNC(=O)[C@@H]2C[C@@H](O)CN2C(=O)[C@@H](NC(=O)CCCCCCCCC(=O)N2CC(c3c[nH]c4nnc(-c5ccccc5O)cc34)C2)C(C)(C)C)cc1 [Compound 43, (2S,4R)-4-hydroxy-1-((S)-2-(10-(3-(3-(2-hydroxyphenyl)-7H-pyrrolo[2,3-c]pyridazin-5-yl)azetidin-1-yl)-10-oxodecanamido)-3,3-dimethylbutanoyl)-N-(4-(4-methylthiazol-5-yl)benzyl)pyrrolidine-2-carboxamide] | < 50 | – | – | C (“C” indicates maximum degradation < 50%) | – | – | – |
| Cc1ncsc1-c1ccc(CNC(=O)[C@@H]2C[C@@H](O)CN2C(=O)[C@@H](NC(=O)CCCCCCC(=O)N2CC(c3c[nH]c4nnc(-c5ccccc5O)cc34)C2)C(C)(C)C)cc1 [Compound 45, (2S,4R)-4-hydroxy-1-((S)-2-(8-(3-(3-(2-hydroxyphenyl)-7H-pyrrolo[2,3-c]pyridazin-5-yl)azetidin-1-yl)-8-oxooctanamido)-3,3-dimethylbutanoyl)-N-(4-(4-methylthiazol-5-yl)benzyl)pyrrolidine-2-carboxamide] | < 50 | – | – | C (“C” indicates maximum degradation < 50%) | – | – | – |
| Cc1ncsc1-c1ccc(CNC(=O)[C@@H]2C[C@@H](O)CN2C(=O)[C@@H](NC(=O)CCCCC(=O)N2CC(c3c[nH]c4nnc(-c5ccccc5O)cc34)C2)C(C)(C)C)cc1 [Compound 47, (2S,4R)-4-hydroxy-1-((S)-2-(6-(3-(3-(2-hydroxyphenyl)-7H-pyrrolo[2,3-c]pyridazin-5-yl)azetidin-1-yl)-6-oxohexanamido)-3,3-dimethylbutanoyl)-N-(4-(4-methylthiazol-5-yl)benzyl)pyrrolidine-2-carboxamide] | < 50 | – | – | C (“C” indicates maximum degradation < 50%) | – | – | – |
| Cc1ncsc1-c1ccc([C@H](C)NC(=O)[C@@H]2C[C@@H](O)CN2C(=O)[C@@H](c2cc(N3CCN(C(=O)[C@H]4C[C@]5(Cc6cc(-c7ccccc7O)nnc6N5)C4)CC3)no2)C(C)C)cc1 [Compound 77, (2S,4R)-4-hydroxy-1-((R)-2-(3-(4-((1S,3r)-3′-(2-hydroxyphenyl)-5′,7′-dihydrospiro[cyclobutane-1,6′-pyrrolo[2,3-c]pyridazine]-3-carbonyl)piperazin-1-yl)isoxazol-5-yl)-3-methylbutanoyl)-N-((S)-1-(4-(4-methylthiazol-5-yl)phenyl)ethyl)pyrrolidine-2-carboxamide] | – | – | – | A (“A” indicates maximum degradation ≥ 75%) | A (“A” indicates maximum degradation ≥ 75%) | < 7.00 | < 8.00 |
| Cc1ncsc1-c1ccc([C@H](C)NC(=O)[C@@H]2C[C@@H](O)CN2C(=O)[C@@H](c2cc(N3C[C@H]4C[C@@H]3CN4C(=O)[C@@H]3CCc4[nH]c5nnc(-c6ccccc6O)cc5c4C3)no2)C(C)C)cc1 [Compound 101, (2S,4R)-4-hydroxy-1-((R)-2-(3-((1R,4R)-5-((R)-3-(2-hydroxyphenyl)-6,7,8,9-tetrahydro-5H-pyridazino[3,4-b]indole-6-carbonyl)-2,5-diazabicyclo[2.2.1]heptan-2-yl)isoxazol-5-yl)-3-methylbutanoyl)-N-((S)-1-(4-(4-methylthiazol-5-yl)phenyl)ethyl)pyrrolidine-2-carboxamide] | > 75 | > 10 | < 10 | A (“A” indicates maximum degradation ≥ 75%) | – | – | – |
| Cc1ncsc1-c1ccc([C@H](C)NC(=O)[C@@H]2C[C@@H](O)CN2C(=O)[C@@H](c2cc(OCC(=O)N(C)[C@H]3CCc4[nH]c5nnc(-c6ccccc6O)cc5c4C3)no2)C(C)C)cc1 [Compound 106, (2S,4R)-4-hydroxy-1-((R)-2-(3-(2-(((S)-3-(2-hydroxyphenyl)-6,7,8,9-tetrahydro-5H-pyridazino[3,4-b]indol-6-yl)(methyl)amino)-2-oxoethoxy)isoxazol-5-yl)-3-methylbutanoyl)-N-((S)-1-(4-(4-methylthiazol-5-yl)phenyl)ethyl)pyrrolidine-2-carboxamide] | < 50 | – | > 10 | A (“A” indicates maximum degradation ≥ 75%) | – | – | – |

Further lines, with some results ahead:

| Dmax [1] [%] | DC50 [1, 3] [nM] | DC50 [2] [nM] | SMILES | BRM HiBit Degradation Maximum (%) [2] | BRG1 HiBit Degradation Maximum (%) [1] | pIC50 [1, 3] | pIC50 [2] |
| --- | --- | --- | --- | --- | --- | --- | --- |
| < 50 | – | – | Cc1ncsc1-c1ccc(CNC(=O)[C@@H]2C[C@@H](O)CN2C(=O)[C@@H](NC(=O)CCCCCCCCCCCCCCC(=O)N2CC(c3c[nH]c4nnc(-c5ccccc5O)cc34)C2)C(C)(C)C)cc1 [Compound 41, (2S,4R)-4-hydroxy-1-((S)-2-(16-(3-(3-(2-hydroxyphenyl)-7H-pyrrolo[2,3-c]pyridazin-5-yl)azetidin-1-yl)-16-oxohexadecanamido)-3,3-dimethylbutanoyl)-N-(4-(4-methylthiazol-5-yl)benzyl)pyrrolidine-2-carboxamide] | C (“C” indicates maximum degradation < 50%) | – | – | – |
| < 50 | – | – | Cc1ncsc1-c1ccc(CNC(=O)[C@@H]2C[C@@H](O)CN2C(=O)[C@@H](NC(=O)CCCCCCCCCCCCCCCC(=O)N2CC(c3c[nH]c4nnc(-c5ccccc5O)cc34)C2)C(C)(C)C)cc1 [Compound 42, (2S,4R)-4-hydroxy-1-((S)-2-(17-(3-(3-(2-hydroxyphenyl)-7H-pyrrolo[2,3-c]pyridazin-5-yl)azetidin-1-yl)-17-oxoheptadecanamido)-3,3-dimethylbutanoyl)-N-(4-(4-methylthiazol-5-yl)benzyl)pyrrolidine-2-carboxamide] | C (“C” indicates maximum degradation < 50%) | – | – | – |
| < 50 | – | – | Cc1ncsc1-c1ccc(CNC(=O)[C@@H]2C[C@@H](O)CN2C(=O)[C@@H](NC(=O)CCCCCCCCCCCCC(=O)N2CC(c3c[nH]c4nnc(-c5ccccc5O)cc34)C2)C(C)(C)C)cc1 [Compound 44, (2S,4R)-4-hydroxy-1-((S)-2-(14-(3-(3-(2-hydroxyphenyl)-7H-pyrrolo[2,3-c]pyridazin-5-yl)azetidin-1-yl)-14-oxotetradecanamido)-3,3-dimethylbutanoyl)-N-(4-(4-methylthiazol-5-yl)benzyl)pyrrolidine-2-carboxamide] | C (“C” indicates maximum degradation < 50%) | – | – | – |
| < 50 | – | – | Cc1ncsc1-c1ccc(CNC(=O)[C@@H]2C[C@@H](O)CN2C(=O)[C@@H](NC(=O)CCCCCCCCCCC(=O)N2CC(c3c[nH]c4nnc(-c5ccccc5O)cc34)C2)C(C)(C)C)cc1 [Compound 46, (2S,4R)-4-hydroxy-1-((S)-2-(12-(3-(3-(2-hydroxyphenyl)-7H-pyrrolo[2,3-c]pyridazin-5-yl)azetidin-1-yl)-12-oxododecanamido)-3,3-dimethylbutanoyl)-N-(4-(4-methylthiazol-5-yl)benzyl)pyrrolidine-2-carboxamide] | C (“C” indicates maximum degradation < 50%) | – | – | – |
